# Patent US20140161786A1, “Therapeutic compositions and related methods” (priority 2012, published 2014)
# Where a SMILES comes first, the peptide text is derived from it.
# Key:
# [1] = molecular target: T1, beta chain of insulin (Homo sapiens, UniProt P01308); test: Inhibition of DTT induced aggregation of the beta chain of insulin (molecular chaperone function); assay type: biochemical; conditions: for inhibition of insulin aggregation, L- versus D-amino acids: FIG. 6b/6c; for molecular chaperone function (inhibition of insulin aggregation): pH 4 and pH 7.4; for inhibition of insulin aggregation: pH 7.4 and pH 5
# T1 construct: DTT induced aggregation of the beta chain of insulin
# Protocol: The capacity of the proteins and peptides to inhibit DTT induced aggregation of the beta chain of insulin was assayed using procedures described previously by several authors. See, for example, Hong, D. P. & Fink, A. L. Independent heterologous fibrillation of insulin and its B-chain peptide. Biochemistry 44, 16701-16709, doi:10.1021/bi051658y (2005). Also see, Hong, D. P., Ahmad, A. & Fink, A. L. Fibrillation of human insulin A and B chains. Biochemistry 45, 9342-9353, doi:10.1021/bi0604936 (2006). The aggregation was measured by the increase in absorption at 360 nm as a function of time over twenty minutes.
# To determine whether the ThT staining observed in Experiment 4 (above) correlated with molecular chaperone function, each of the peptides was assayed for its ability to inhibit insulin aggregation. The effect of ThT on insulin aggregation was measured as a control. […] […] See, Nielsen, L. et al. Effect of environmental factors on the kinetics of insulin fibril formation: elucidation of the molecular mechanism. Biochemistry 40, 6036-6046, doi:bi002555c [pii] (2001).
# [2] = system: EAE mice; test: EAE mouse model, reduction of paralytic symptoms; assay type: in vivo
# [3] = Amyloid fibril formation by thioflavin T (ThT) fluorescence; assay type: physicochemical; conditions: for amyloid fibril formation (ThT staining), L- versus D-amino acids: 100 mM MES pH 7.4, 37° C.; for pH dependent amyloid fibril formation (ThT staining): buffers pH 3 to pH 10, 37° C., fluorescence at 485 nm
# Protocol: The relative amount of amyloid present in each solution was measured by combining solutions of the hexamers (200 mg 50 ml) dissolved in 100 mM MES pH 7.4 and 50 ml of a 1M buffer solution at the appropriate pH (glycine, pH 3; acetate, pH 4; citrate, pH 5; MES, pH 6; Tris, pH 7; Tris, pH 8; glycine, pH 9; bicarbonate, pH 10) and incubated at 37° C. ThT (10 ml of 10 mM solution) was added and the resultant emission fluorescence at 485 nm for each sample after excitation at 440 nm was measured using a SpectraMax 190 fluorescent microtiter plate reader.
# The ability of each hexamer listed in Table 1 to form amyloid fibrils in aqueous buffers was examined. Each of the hexamers (200 mg 50 ml) was added to 100 ml of 100 mM MES pH 7.4 and combined with 50 ml of a 1M buffer solution at the appropriate pH (glycine, pH 3; acetate, pH 4; citrate, pH 5; MES, pH 6; Tris, pH 7; Tris, pH 8; glycine, pH 9; bicarbonate, pH 10) and incubated at 37° C. ThT (10 ml of 10 mM solution) was added and the resultant fluorescence at 485 nm from excitation at 440 nm was measured using a fluorescent plate reader. The peptides can be segregated into sets A-E: an anionic set forming fibrils at pH 3, pH 4, and pH 5 (A), a cationic group forming fibrils only at pH 10 (B), three cationic sequences that form amyloid fibrils at all pHs measured (C), a nonionizable set of sequences weakly binding ThT at all pHs (D), and a hydrophobic set of sequences that bind ThT at all pHs tested (E). Only a fraction of the peptides formed amyloid fibrils when dissolved in PBS pH 7.4, as measured by staining with thioflavin T (ThT). Their differential propensity to form amyloid fibrils was used to help segregate them into functional sets (Table 1).
# With respect the experimental results depicted in FIG. 6: A) L- and D-tau 623-628 and L- and D-Aβ 37-42 (200 μg/50 μl) were each added to 100 μl of 100 mM MES pH 7.4 and incubated at 37° C. ThT (10 μl of 10 μM solution) was added and the resultant fluorescence at 485 nm from excitation at 440 nm was measured using a fluorescent plate reader. The levels of ThT were similar in both sets of hexapeptides. […] D) Groups of ten mice were injected daily intraperitoneally for 10 days with 1 μg of L-tau or D-tau hexapeptides beginning at onset of hindlimb weakness. PBS was injected in littermates as control. Bar represents the duration of the treatment. Values in graph represent mean+/−S.E.M. *p<0.05 for L-tau and ̂p<0.05 for D-tau by Mann-Whitney U test.
# [4] = system: plasma cytokine levels (IL-6, IL-2, TGF-β, IL-17); test: Plasma cytokine levels in EAE mice (multiplex-bead-analysis of 26 cytokines); assay type: in vivo; conditions: 1 μg of Tau 623-628 or 10 μg of HspB1 daily for two days, bled 12 hours later
# Protocol: EAE was induced by procedures previously described. See, Steinman, L. & Zamvil, S. S. How to successfully apply animal studies in experimental allergic encephalomyelitis to research on multiple sclerosis. Ann Neurol 60, 12-21, doi:10.1002/ana.20913 (2006). […] Sera from EAE mice were collected following two days of treatment with 10 μg HspB1 protein, 1 μg tau 623-628 (VQIVYK)(SEQ ID NO: 123), or PBS. Twenty-six cytokines were analyzed by multiplex-bead-analysis.
# To determine whether a hexamer modulated the plasma cytokine levels equivalent to an intact small heat shock protein, groups of five mice were treated after the onset of hindlimb weakness with daily injections of either 1 μg of Tau 623-628 or 10 μg of HspB1 for two days and bled 12 hours later.
# [5] = mice, 1 μg peptide injected daily from onset of hindlimb weakness, PBS control
# T1 sequence (P01308 25-54 limits assumed): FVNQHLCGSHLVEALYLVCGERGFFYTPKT
compound,measurement,setting,value
"Cc1ccc2c(c1)sc(-c1ccc(N(C)C)cc1)[n+]2C.[Cl-] [ThT, thioflavin T, reference compound]",effect on the rate of insulin aggregation (control),[1]; 10 mM ThT,Neither the addition of 10 mM ThT nor ThT bound to Tau 623-628 affected the rate of insulin aggregation
"CC(=O)N[C@@H](CO)C(=O)N[C@@H](CC(N)=O)C(=O)N[C@@H](CCC(N)=O)C(=O)N[C@@H](CC(N)=O)C(=O)N[C@@H](CC(N)=O)C(=O)N[C@@H](Cc1ccccc1)C(N)=O [prion 148-153, SNQNNF] (Ac-SNQNNF-NH2)",reduction of the paralytic symptoms of EAE,"[2]; mouse, in vivo",therapeutic
Ac VQIVYK CONH2 [D-tau 623-628],"amyloid fibril formation (ThT staining), L- versus D-amino acids",[3],similar
same,"inhibition of insulin aggregation, L- versus D-amino acids",[1],inhibit insulin aggregation in a dose dependent manner with similar IC50 concentrations
GYVIIK [serum amyloid P 213-218],pH dependent amyloid fibril formation (ThT staining),[3],formed amyloid fibrils in buffers from pH 3-10
same,reduction of the paralytic symptoms of EAE,[2]; [5],therapeutic
HspB1: intact small heat shock protein,IL-2 level in serum,[4],smaller reductions
same,IL-6 level in serum,[4],dramatic reduction
same,IL-17 level in serum,[4],smaller reductions
same,TGF-β level in serum,[4],smaller reductions
"L-Aβ 37-42: L-amino acid hexapeptide of FIG. 6A; b76 calls it A beta 35-40 (Ac MVGGVV CONH2) (Ac-MVGGVV-NH2; UniProt P05067 706-711, looked up, fragment)","amyloid fibril formation (ThT staining), L- versus D-amino acids",[3],similar
"LKVKVL [HspB5 89-94, hexamer of HspB5 residues 89-94]",pH dependent amyloid fibril formation (ThT staining),[3],bound ThT only at pH 10
same,reduction of the paralytic symptoms of EAE,[2]; [5],effectively reduced the paralytic symptoms of EAE
"MVGGVV (Ac-MVGGVV-NH2) [A beta A4 35-40, Ac MVGGVV CONH2 in b76]","amyloid fibril formation (ThT staining), L- versus D-amino acids",[3],"equivalent, within error"
same,reduction of the paralytic symptoms of EAE,"[2]; mice, 1 μg peptide daily, administered in 50% DMSO",therapeutic
NKGAII [A beta A4 27-32],pH dependent amyloid fibril formation (ThT staining),[3],bound ThT only at pH 10
same,reduction of the paralytic symptoms of EAE,[2]; [5],therapeutic
SSTNVG [amylin 28-33],reduction of the paralytic symptoms of EAE,[2]; [5],therapeutic
"SVNDLV [HspB5 76-81, hexamer of HspB5 residues 76-81]",pH dependent amyloid fibril formation (ThT staining),[3],effectively formed amyloid fibrils only in a range of pH 3 to pH 5
same,reduction of the paralytic symptoms of EAE,[2]; [5],effectively reduced the paralytic symptoms of EAE
same,molecular chaperone function (inhibition of insulin aggregation),[1],molecular chaperone only at pH4 and not in more basic solutions
same,inhibition of insulin aggregation,[1],only effective at pH 5
VQIVYK [Tau 623-628],"amyloid fibril formation (ThT staining), L- versus D-amino acids",[3],"equivalent, within error"
same,"amyloid fibril formation (ThT staining), L- versus D-amino acids",[3]; listed as L-tau 623-628,similar
same,pH dependent amyloid fibril formation (ThT staining),[3],formed amyloid fibrils in buffers from pH 3-10
same,IL-2 level in serum,[4],smaller reductions
same,IL-6 level in serum,[4],dramatic reduction
same,IL-17 level in serum,[4],smaller reductions
same,TGF-β level in serum,[4],smaller reductions
same,reduction of the paralytic symptoms of EAE,[2]; [5],effectively reduced the paralytic symptoms of EAE
same,"inhibition of insulin aggregation, L- versus D-amino acids",[1],inhibited insulin aggregation with very similar IC50 values
same,"inhibition of insulin aggregation, L- versus D-amino acids",[1]; listed as L-tau,inhibit insulin aggregation in a dose dependent manner with similar IC50 concentrations
same,molecular chaperone function (inhibition of insulin aggregation),[1],inhibited insulin aggregation at pH 4 and pH 7.4
same,inhibition of insulin aggregation,[1],potent inhibitor at both pH 7.4 and pH 5
same,"IC50, inhibition of insulin aggregation","[1]; titration, Panel C of FIG. 4",approximately 20 mg
"amyloid beta A4 16-21: lysine-containing hexamer of amyloid beta A4 residues 16-21 (KLVFFA; Amyloid-beta protein 42; UniProt P05067 687-692, looked up, fragment)",pH dependent amyloid fibril formation (ThT staining),[3],formed amyloid fibrils in buffers from pH 3-10
"insulin A chain 12-17: hexamer of insulin A chain residues 12-17, acidic residue, sequence only in Table 1 image",pH dependent amyloid fibril formation (ThT staining),[3],effectively formed amyloid fibrils only in a range of pH 3 to pH 5
same,molecular chaperone function (inhibition of insulin aggregation),[1],"molecular chaperones at pH 4, but not at pH 7.4"
"insulin B chain 11-16: hexamer of insulin B chain residues 11-16, acidic residue, sequence only in Table 1 image",pH dependent amyloid fibril formation (ThT staining),[3],effectively formed amyloid fibrils only in a range of pH 3 to pH 5
same,reduction of the paralytic symptoms of EAE,[2]; [5],did not statistically significantly reduce the symptoms of EAE
same,molecular chaperone function (inhibition of insulin aggregation),[1],"molecular chaperones at pH 4, but not at pH 7.4"
